How the values were obtained:
Type in all cases: in vivo
Leptochloa chinensis = experiment: Test Example 3: herbicidal effect by foliage application, Wagner pot (symbol D); conditions: application herbicide amount 320 g/ha
How it was run: (§1)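 Herbicidal activity was rated three weeks after a foliar spray of diluted emulsion concentrate, applied at a predetermined dose to plants grown for 14 days from seed in waterlogged alluvial soil within a 25–30 °C greenhouse.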

Cyperus difformis = experiment: Test Example 3: herbicidal effect by foliage application, Wagner pot (symbol E); conditions: application herbicide amount 320 g/ha
How it was run: as §1

[1] = system: directly sowed rice plant; experiment: Test Example 3: effect on crop by foliage application, Wagner pot (symbol b); conditions: application herbicide amount 320 g/ha
How it was run: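 Plants are raised from seed in flooded paddy conditions: water stands 0.1–0.5 cm over alluvial soil, and the pot is kept in a greenhouse at 25–30 °C. Species sown are barnyardgrass (E. crus-galli var. crus-galli), Leptochloa chinensis, Cyperus difformis and rice.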

Digitaria ciliaris = experiment: Test Example 4: herbicidal effect by soil treatment (symbol F); conditions: application herbicide amount 320 g/ha
How it was run: (§2)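 Seeds were sown in sterilized diluvial soil, covered with about 1.5 cm of soil, and the soil surface was sprayed with a water-diluted emulsion of the compound at a predetermined rate. Plants grew in a greenhouse at 25° C. to 30° C.; effects were scored visually 3 weeks after application.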

[2] = system: Echinochloa crus-galli var. crus-galli; experiment: Test Example 4: herbicidal effect by soil treatment (symbol H); conditions: application herbicide amount 320 g/ha
How it was run: as §2

Lolium multiflorum Lam. [3] = experiment: Test Example 4: herbicidal effect by soil treatment (symbol K); conditions: application herbicide amount 320 g/ha
How it was run: as §2

Abutilon theophrasti [4] = experiment: Test Example 4: herbicidal effect by soil treatment (symbol M); conditions: application herbicide amount 320 g/ha
How it was run: as §2

Amaranthus retroflexus = experiment: Test Example 4: herbicidal effect by soil treatment (symbol N); conditions: application herbicide amount 320 g/ha
How it was run: as §2

corn [5] = experiment: Test Example 4: effect on crop by soil treatment (symbol c); conditions: application herbicide amount 320 g/ha
How it was run: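 Diluvial soil (sterilized) in boxes; seeds placed spot-wise alongside weed species; ~1.5 cm covering soil. Greenhouse, 25–30° C.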

soybean = experiment: Test Example 4: effect on crop by soil treatment (symbol d); conditions: application herbicide amount 320 g/ha
How it was run: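 Plants grew in a 25° C. to 30° C. greenhouse after spot-sowing of seeds, including beet, rapeseed, wheat and rice, into sterilized diluvial soil under roughly 1.5 cm of cover soil.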

Setaria viridis = experiment: Test Example 5: herbicidal effect by foliage application, plastic box (symbol G); conditions: 320 g/ha, 3 weeks after application
How it was run: (§3)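 Leaf-applied emulsion, water-diluted to a preset herbicide dose, on two-week-old seedlings raised in a 25° C. to 30° C. greenhouse; injury rated at 3 weeks using earlier criteria.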

Avena fatua = experiment: Test Example 5: herbicidal effect by foliage application, plastic box (symbol I); conditions: 320 g/ha, 3 weeks after application
How it was run: as §3

Lolium multiflorum Lam. [6] = experiment: Test Example 5: herbicidal effect by foliage application, plastic box (symbol K); conditions: 320 g/ha, 3 weeks after application
How it was run: as §3

Apera spica-venti = experiment: Test Example 5: herbicidal effect by foliage application, plastic box (symbol L); conditions: 320 g/ha, 3 weeks after application
How it was run: as §3

Abutilon theophrasti [7] = experiment: Test Example 5: herbicidal effect by foliage application, plastic box (symbol M); conditions: 320 g/ha, 3 weeks after application
How it was run: as §3

Chenopodium album = experiment: Test Example 5: herbicidal effect by foliage application, plastic box (symbol O); conditions: 320 g/ha, 3 weeks after application
How it was run: as §3

corn [8] = experiment: Test Example 5: effect on crop by foliage application, plastic box (symbol c); conditions: 320 g/ha, 3 weeks after application
How it was run: (§4)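 Soil: sterilized diluvial. Container: plastic box, 21 × 13 cm, 7 cm deep. Sowing: spot-like, ~1.5 cm cover. Growth: greenhouse, 25° C. to 30° C.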

wheat = experiment: Test Example 5: effect on crop by foliage application, plastic box (symbol e); conditions: 320 g/ha, 3 weeks after application
How it was run: as §4

beet = experiment: Test Example 5: effect on crop by foliage application, plastic box (symbol f); conditions: 320 g/ha, 3 weeks after application
How it was run: as §4

rapeseed = experiment: Test Example 5: effect on crop by foliage application, plastic box (symbol g); conditions: 320 g/ha, 3 weeks after application
How it was run: as §4

Row | SMILES | herbicidal effect on D (Leptochloa chinensis), grade 0-5 (Leptochloa chinensis) | herbicidal effect on E, grade 0-5 (Cyperus difformis) | effect on crop b (directly sowed rice plant), grade 0-5 [1] | F: Digitaria ciliaris, herbicidal effect grade (Digitaria ciliaris) | H: Echinochloa crus-galli var. crus-galli, herbicidal effect grade [2] | K: Lolium multiflorum Lam., herbicidal effect grade (Lolium multiflorum Lam. [3]) | M: Abutilon theophrasti, herbicidal effect grade (Abutilon theophrasti [4]) | N: Amaranthus retroflexus, herbicidal effect grade (Amaranthus retroflexus) | c: corn, effect on crop grade (corn [5]) | d: soybean, effect on crop grade (soybean) | G: Setaria viridis, herbicidal effect grade (Setaria viridis) | I: Avena fatua, herbicidal effect grade (Avena fatua) | K: Lolium multiflorum Lam., herbicidal effect grade (Lolium multiflorum Lam. [6]) | L: Apera spica-venti, herbicidal effect grade (Apera spica-venti) | M: Abutilon theophrasti, herbicidal effect grade (Abutilon theophrasti [7]) | O: Chenopodium album, herbicidal effect grade (Chenopodium album) | c: corn, effect on crop grade (corn [8]) | e: wheat, effect on crop grade (wheat) | f: beet, effect on crop grade (beet) | g: rapeseed, effect on crop grade (rapeseed) | further results
1 | CCc1cc(-n2cc(Cl)cn2)cc(C)c1C1=C(O)CC(CC(C)=NOC)C1=O (mixture of isomers) [6-005] | 5 (Herbicidal ratio of 90% or more (almost completely withered)) | 3 (Herbicidal ratio of 40% or higher and lower than 70%) | 5 (Herbicidal ratio of 90% or more (almost completely withered)) | 5 (Herbicidal ratio of 90% or more (almost completely withered)) | 5 (Herbicidal ratio of 90% or more (almost completely withered)) | 5 (Herbicidal ratio of 90% or more (almost completely withered)) | 0 (Herbicidal ratio of 5% or lower (almost no effect)) | 0 (Herbicidal ratio of 5% or lower (almost no effect)) | 3 (Herbicidal ratio of 40% or higher and lower than 70%) | 1 (Herbicidal ratio of 5% or higher and lower than 20%) | 5 (Herbicidal ratio of 90% or more (almost completely withered)) | 5 (Herbicidal ratio of 90% or more (almost completely withered)) | 5 (Herbicidal ratio of 90% or more (almost completely withered)) | 5 (Herbicidal ratio of 90% or more (almost completely withered)) | 5 (Herbicidal ratio of 90% or more (almost completely withered)) | 3 (Herbicidal ratio of 40% or higher and lower than 70%) | 5 (Herbicidal ratio of 90% or more (almost completely withered)) | 4 (Herbicidal ratio of 70% or higher and lower than 90%) | 0 (Herbicidal ratio of 5% or lower (almost no effect)) | 0 (Herbicidal ratio of 5% or lower (almost no effect)) | 
2 | CC#Cc1cc(C)c(C2=C(O)CC(CC(C)=NOC)C2=O)c(C)c1 (mixture of isomers) [6-009] | 5 (Herbicidal ratio of 90% or more (almost completely withered)) | 0 (Herbicidal ratio of 5% or lower (almost no effect)) | 5 (Herbicidal ratio of 90% or more (almost completely withered)) | 5 (Herbicidal ratio of 90% or more (almost completely withered)) | 5 (Herbicidal ratio of 90% or more (almost completely withered)) | 5 (Herbicidal ratio of 90% or more (almost completely withered)) | 5 (Herbicidal ratio of 90% or more (almost completely withered)) | 5 (Herbicidal ratio of 90% or more (almost completely withered)) | 5 (Herbicidal ratio of 90% or more (almost completely withered)) | 0 (Herbicidal ratio of 5% or lower (almost no effect)) | 5 (Herbicidal ratio of 90% or more (almost completely withered)) | 4 (Herbicidal ratio of 70% or higher and lower than 90%) | 5 (Herbicidal ratio of 90% or more (almost completely withered)) | 5 (Herbicidal ratio of 90% or more (almost completely withered)) | 3 (Herbicidal ratio of 40% or higher and lower than 70%) | 2 (Herbicidal ratio of 20% or higher and lower than 40%) | 5 (Herbicidal ratio of 90% or more (almost completely withered)) | 5 (Herbicidal ratio of 90% or more (almost completely withered)) | 2 (Herbicidal ratio of 20% or higher and lower than 40%) | 4 (Herbicidal ratio of 70% or higher and lower than 90%) | 
3 | CON=C(C)CC1CC(OCCSC)=C(c2c(C)cc(C)cc2C)C1=O (stereo not shown) [1-011] | 5 (Herbicidal ratio of 90% or more (almost completely withered)) | 0 (Herbicidal ratio of 5% or lower (almost no effect)) | 0 (Herbicidal ratio of 5% or lower (almost no effect)) |  |  |  |  |  |  |  | 0 (Herbicidal ratio of 5% or lower (almost no effect)) | 0 (Herbicidal ratio of 5% or lower (almost no effect)) | 5 (Herbicidal ratio of 90% or more (almost completely withered)) | 5 (Herbicidal ratio of 90% or more (almost completely withered)) | 0 (Herbicidal ratio of 5% or lower (almost no effect)) | 0 (Herbicidal ratio of 5% or lower (almost no effect)) | 0 (Herbicidal ratio of 5% or lower (almost no effect)) | 0 (Herbicidal ratio of 5% or lower (almost no effect)) | 0 (Herbicidal ratio of 5% or lower (almost no effect)) | 4 (Herbicidal ratio of 70% or higher and lower than 90%) | F (Digitaria ciliaris) herbicidal effect grade (Digitaria ciliaris): 0 (Herbicidal ratio of 5% or lower (almost no effect)); H (Echinochloa crus-galli var. crus-galli) herbicidal effect grade [2]: 0 (Herbicidal ratio of 5% or lower (almost no effect)); K (Lolium multiflorum Lam.) herbicidal effect grade (Lolium multiflorum Lam. [3]): 0 (Herbicidal ratio of 5% or lower (almost no effect)); M (Abutilon theophrasti) herbicidal effect grade (Abutilon theophrasti [4]): 0 (Herbicidal ratio of 5% or lower (almost no effect)); N (Amaranthus retroflexus) herbicidal effect grade (Amaranthus retroflexus): 0 (Herbicidal ratio of 5% or lower (almost no effect)); c (corn) effect on crop grade (corn [5]): 0 (Herbicidal ratio of 5% or lower (almost no effect)); d (soybean) effect on crop grade (soybean): 0 (Herbicidal ratio of 5% or lower (almost no effect))
4 | CCc1cc(C)cc(C)c1C1=C(O)CC(CC(C)=NOC)C1=O (stereo not shown) [6-007] | 5 (Herbicidal ratio of 90% or more (almost completely withered)) | 5 (Herbicidal ratio of 90% or more (almost completely withered)) | 5 (Herbicidal ratio of 90% or more (almost completely withered)) | 5 (Herbicidal ratio of 90% or more (almost completely withered)) | 5 (Herbicidal ratio of 90% or more (almost completely withered)) | 5 (Herbicidal ratio of 90% or more (almost completely withered)) | 4 (Herbicidal ratio of 70% or higher and lower than 90%) | 3 (Herbicidal ratio of 40% or higher and lower than 70%) | 5 (Herbicidal ratio of 90% or more (almost completely withered)) | 0 (Herbicidal ratio of 5% or lower (almost no effect)) | 5 (Herbicidal ratio of 90% or more (almost completely withered)) | 3 (Herbicidal ratio of 40% or higher and lower than 70%) | 5 (Herbicidal ratio of 90% or more (almost completely withered)) | 4 (Herbicidal ratio of 70% or higher and lower than 90%) | 1 (Herbicidal ratio of 5% or higher and lower than 20%) | 0 (Herbicidal ratio of 5% or lower (almost no effect)) | 5 (Herbicidal ratio of 90% or more (almost completely withered)) | 5 (Herbicidal ratio of 90% or more (almost completely withered)) | 0 (Herbicidal ratio of 5% or lower (almost no effect)) |  | 

Source: patent US11000033B2, “Ketone or oxime compound, and herbicide” (NISSAN CHEMICAL CORPORATION, priority 2014, dated 2021)
